Data taken from patent US11780840B2 (Incyte Corporation, priority 2020, dated 2023).

Columns and labels:
[1] = molecular target: T1, catalytic domain (JH1, amino acids 826-1132) of human JAK2 (Homo sapiens, UniProt O60674); assay: JAK2 LanthaScreen JH1 Binding Assay; details: JAK2 JH1 (1.5 nM), 50 nM fluorescent JAK2-JH1 tracer, 2 hours at 25° C.; read-out: JH1 BIND
T1 construct: catalytic domain (JH1, amino acids 826-1132) of human JAK2; FLAG (N); purchased Carna Biosciences 08-445-20N; host or cells: baculovirus expression system
Procedure: Example A. JAK2 LanthaScreen JH1 Binding Assay
JAK2 JH1 binding assay utilizes catalytic domain (JH1, amino acids 826-1132) of human JAK2 expressed as N-terminal FLAG-tagged, biotinylated protein in a baculovirus expression system (Carna Biosciences, Product #08-445-20N). The assay was conducted in black 384-well polystyrene plates in a final reaction volume of 20 μL. JAK2 JH1 (1.5 nM) was incubated with compounds (100 nL serially diluted in DMSO) in the presence of 50 nM fluorescent JAK2-JH1 tracer and 0.5 nM Streptavidin-Tb cryptate (Cisbio Part #610SATLB) in assay buffer (50 mM Tris, pH=7.5, 10 mM MgCl2, 0.01% Brij-35, 0.1% BSA, 1 mM EGTA, 5% Glycerol and 5 mM DTT). Non-specific binding was accessed in the presence of 2 mM ATP. After incubation for 2 hours at 25° C., LanthaScreen signals were read on a PHERAstar FS plate reader (BMG LABTECH). Data was analyzed with IDBS XLfit and GraphPad Prism 5.0 software using a four parameter dose response curve to determine IC50 for each compound.

[2] = molecular target: T2, pseudo-kinase domain (JH2, amino-acids 536-812 with 3 surface mutations W659A, W777A, F794H) of human Wild Type JAK2 (Homo sapiens, UniProt O60674, F794H/W659A/W777A); assay: JAK2 LanthaScreen JH2-WT Binding Assay; details: JAK2 JH2-WT (0.145 nM), 50 nM Fluorescent JAK2-JH2 Tracer, 1 hour at 25° C.; read-out: JH2 BIND WT
T2 construct: pseudo-kinase domain (JH2, amino-acids 536-812 with 3 surface mutations W659A, W777A, F794H); His (C); Avi (biotinylated) (C); purchased BPS Bioscience 79463; host or cells: baculovirus expression system
Procedure: Example B. JAK2 LanthaScreen JH2-WT Binding Assay
(§1) JAK2 JH2-WT binding assay utilizes pseudo-kinase domain (JH2, amino-acids 536-812 with 3 surface mutations W659A, W777A, F794H) of human Wild Type JAK2 expressed as C-terminal His-Avi-tagged, biotinylated protein in a baculovirus expression system (BPS Bioscience, Catalog #79463). The assay was conducted in black 384-well polystyrene plates in a final reaction volume of 20 μL. JAK2 JH2-WT (0.145 nM) was incubated with compounds (100 nL serially diluted in DMSO) in the presence of 50 nM Fluorescent JAK2-JH2 Tracer (MedChem Express Catalog #HY-102055) and 0.25 nM Streptavidin-Tb cryptate (Cisbio Part #610SATLB) in assay buffer (50 mM Tris, pH=7.5, 10 mM MgCl2, 0.01% Brij-35, 0.1% BSA, 1 mM EGTA, 5% Glycerol and 5 mM DTT). Non-specific binding was accessed in the presence of 2 mM ATP. After incubation for 1 hour at 25° C., LanthaScreen signals were read on a PHERAstar FS plate reader (BMG LABTECH). Data was analyzed with IDBS XLfit and GraphPad Prism 5.0 software using a four parameter dose response curve to determine IC50 for each compound.

[3] = molecular target: T3, pseudo-kinase domain (JH2, amino-acids 536-812 with 3 surface mutations W659A, W777A, F794H) of human V617F mutant JAK2 (Homo sapiens, UniProt O60674, F794H/V617F/W659A/W777A); assay: JAK2 LanthaScreen JH2-V617F Binding Assay; details: JAK2 JH2-V617F (0.26 nM), 50 nM Fluorescent JAK2-JH2 Tracer, 1 hour at 25° C.; read-out: JH2 BIND V617F
T3 construct: pseudo-kinase domain (JH2, amino-acids 536-812 with 3 surface mutations W659A, W777A, F794H); His (C); Avi (biotinylated) (C); purchased BPS Bioscience 79498; host or cells: baculovirus expression system
Procedure: Example C. JAK2 LanthaScreen JH2-V617F Binding Assay
as §1, with “JH2-V617F” for “JH2-WT”, “V617F mutant” for “Wild Type”, “#79498).” for “#79463).”, “JH2-V617F (0.26” for “JH2-WT (0.145”

T3 sequence (O60674 536-812 V617F/W659A/W777A/F794H): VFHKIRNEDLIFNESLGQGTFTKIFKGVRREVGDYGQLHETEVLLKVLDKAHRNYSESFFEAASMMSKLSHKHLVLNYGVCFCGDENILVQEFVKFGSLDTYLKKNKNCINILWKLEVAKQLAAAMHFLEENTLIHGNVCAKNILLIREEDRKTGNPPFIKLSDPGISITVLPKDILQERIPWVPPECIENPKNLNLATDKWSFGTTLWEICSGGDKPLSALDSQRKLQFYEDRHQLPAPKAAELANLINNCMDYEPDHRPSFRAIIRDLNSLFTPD
T1 sequence (O60674 826-1132): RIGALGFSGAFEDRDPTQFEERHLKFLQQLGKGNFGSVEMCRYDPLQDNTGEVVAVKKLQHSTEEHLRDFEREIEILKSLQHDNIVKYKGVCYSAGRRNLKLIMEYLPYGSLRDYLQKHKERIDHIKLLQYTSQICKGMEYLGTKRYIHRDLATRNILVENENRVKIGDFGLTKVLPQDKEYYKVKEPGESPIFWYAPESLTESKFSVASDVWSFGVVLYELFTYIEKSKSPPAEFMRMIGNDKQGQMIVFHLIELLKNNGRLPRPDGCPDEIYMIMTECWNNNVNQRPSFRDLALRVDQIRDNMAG
T2 sequence (O60674 536-812 W659A/W777A/F794H): as the sequence (O60674 536-812 V617F/W659A/W777A/F794H) above, with F82V counted along it

Structure (SMILES) | IC50 [1] [nM] | IC50 [2] [nM] | IC50 [3] [nM]
Cn1c(=O)n(-c2ccccc2)c2c3cc(-c4ccc(CN5CCC(S(C)(=O)=O)CC5)cc4)[nH]c3ncc21 [Example 1, 3-Methyl-7-(4-((4-(methylsulfonyl)piperidin-1-yl)methyl)phenyl)-1-phenyl-3,6-dihydroimidazo[4,5-d]pyrrolo[2,3-b]pyridin-2(1H)-one] | 10 to 100 | 10 to 100 | 100 to 500
COc1ccc(-n2c(=O)n(C)c3cnc4[nH]c(-c5ccc(CN6CCC(S(C)(=O)=O)CC6)cc5)cc4c32)cc1 [Example 2, 1-(4-Methoxyphenyl)-3-methyl-7-(4-((4-(methylsulfonyl)piperidin-1-yl)methyl)phenyl)-3,6-dihydroimidazo[4,5-d]pyrrolo[2,3-b] pyridin-2(1H)-one] | 10 to 100 | 10 to 100 | 100 to 500
Cn1c(=O)n(-c2ccc3occc3c2)c2c3cc(-c4ccc(CN5CCC(S(C)(=O)=O)CC5)cc4)[nH]c3ncc21 [Example 3, 1-(Benzofuran-5-yl)-3-methyl-7-(4-((4-(methylsulfonyl)piperidin-1-yl)methyl)phenyl)-3,6-dihydroimidazo[4,5-d]pyrrolo[2,3-b]pyridin-2(1H)-one] | 10 to 100 | 10 to 100 | 10 to 100
CS(=O)(=O)C1CCN(Cc2ccc(-c3cc4c(ncc5[nH]c(=O)n(-c6ccccc6)c54)[nH]3)cc2)CC1 [Example 4, 7-(4-((4-(Methylsulfonyl)piperidin-1-yl)methyl)phenyl)-1-phenyl-3,6-dihydroimidazo [4,5-d]pyrrolo[2,3-b]pyridin-2(1H)-one] | 10 to 100 | 100 to 500 | 100 to 500
CS(=O)(=O)C1CCN(Cc2ccc(-c3cc4c(ncc5c4n(-c4ccccc4)c(=O)n5CCO)[nH]3)cc2)CC1 [Example 5, 3-(2-Hydroxyethyl)-7-(4-((4-(methylsulfonyl)piperidin-1-yl)methyl)phenyl)-1-phenyl-3,6-dihydroimidazo[4,5-d]pyrrolo[2,3-b]pyridin-2(1H)-one] | 100 to 500 | > 1000 | > 1000
Cn1c(=O)n(-c2ccccc2)c2c3cc(-c4cnn(C5CCS(=O)(=O)C5)c4)[nH]c3ncc21 (stereo not drawn) [Example 6, 7-(1-(1,1-Dioxidotetrahydro-thiophen-3-yl)-1H-pyrazol-4-yl)-3-methyl-1-phenyl-3,6-dihydroimidazo[4,5-d]pyrrolo[2,3-b]pyridin-2(1H)-one] | 10 to 100 | 100 to 500 | 100 to 500
CN(CCCS(C)(=O)=O)Cc1ccc(-c2cc3c(ncc4c3n(-c3ccccc3)c(=O)n4C)[nH]2)cc1 [Example 7, 3-Methyl-7-(4-((methyl(3-(methylsulfonyl)propyl)amino)methyl)phenyl)-1-phenyl-3,6-dihydroimidazo [4,5-d]pyrrolo[2,3-b]pyridin-2(1H)-one] | 10 to 100 | 100 to 500 | 100 to 500
Cn1c(=O)n(-c2ccccc2)c2c3cc(-c4ccc(CN5CCC(S(C)(=O)=O)CC5)c(F)c4)[nH]c3ncc21 [Example 8, 7-(3-Fluoro-4-((4-(methylsulfonyl)piperidin-1-yl)methyl)phenyl)-3-methyl-1-phenyl-3,6-dihydroimidazo[4,5-d]pyrrolo[2,3-b]pyridin-2(1H)-one] | 10 to 100 | 10 to 100 | 100 to 500
CCN1CCN(c2ccc(-c3cc4c(ncc5c4n(-c4ccccn4)c(=O)n5C)[nH]3)cc2)CC1 [Example 9, 7-(4-(4-Ethylpiperazin-1-yl)phenyl)-3-methyl-1-(pyridin-2-yl)-3,6-dihydroimidazo[4,5-d]pyrrolo[2,3-b]pyridin-2(1H)-one] | > 1000 | > 1000 | > 1000
Cn1c(=O)n(C2CCCCC2)c2c3cc(-c4ccc(CN5CCC(S(C)(=O)=O)CC5)cc4)[nH]c3ncc21 [Example 10, 1-Cyclohexyl-3-methyl-7-(4-((4-(methylsulfonyl)piperidin-1-yl)methyl)phenyl)-3,6-dihydroimidazo[4,5-d]pyrrolo[2,3-b]pyridin-2(1H)-one] | 10 to 100 | 10 to 100 | 100 to 500
